From paper PMC7307930, “Stereoselective Activity of 1-Propargyl-4-styrylpiperidine-like Analogues That Can Discriminate between Monoamine Oxidase Isoforms A and B” (Journal of Medicinal Chemistry, 2020)

Test system: Swiss mice
Experiment: Elevated plus maze test
Format: in vivo, mouse
Details: acute ip, 1 mg/kg

Compound | Open arm entries (%) | Time in centre (%) | Time in open arms (%) | Total arm entries
CN1C(=O)CN=C(c2ccccc2)c2cc(Cl)ccc21 [Diazepam, reference compound] | 29.9 ±3.2% | 37.6 ±5.8% | 22.3 ±3.1% | 36.0 ±3.2

Test system: Swiss mice
Experiment: Tail suspension test
Format: in vivo, mouse
Details: ip 30 min before; 6, 67 at 3 and 10 mg/kg, 69 at 1, 3, 10, 30 mg/kg, imipramine 30 mg/kg
Method: The antidepressant-like activity was screened with the widely used tail suspension test. At 30 min before the behavioral assays, the mice were treated with 6, 67, and 69 at 3 mg/kg and 10 mg/kg ip, with 69 also at 1 mg/kg and 30 mg/kg ip, or were injected with 0.9% saline as control. Imipramine (30 mg/kg ip) was used as the reference drug.
(A) Effects of acute ip treatment with 6 (3, 10 mg/kg, n = 13, 9), 67 (3, 10 mg/kg, n = 6, 10), and 69 (1, 3, 10, 30 mg/kg, n = 8, 7, 8, 6) and imipramine (30 mg/kg, n = 8) in the tail suspension test. […] (B) Effects of acute ip treatment with 6 (3, 10 mg/kg, n = 8, 8), 67 (1, 3, 6 mg/kg; n = 5, 5, 5), and 69 (1, 3, 6 mg/kg, n = 10, 5, 5) on locomotor activity of the mice. […] (C) Effects of 10-day chronic ip treatment with 69 (0.3 mg/kg, daily; n = 10) in the tail suspension test. Data are mean values ± SEM of the immobility time, compared to control mice (n = 8): ∗∗, p < 0.01 (unpaired t-test). […]
quality control sample every seven test samples. The absolute matrix effect was checked by comparing the analyte responses in the standard solutions to the samples spiked in the tissue incubation medium from the control experiment without the analyte, and a deviation of less than ±20% was deemed acceptable.
4.2.10In vitro radioligand binding assay
Rats were humanely killed by decapitation and their brains were removed, washed and rapidly dissected on ice. Homogenisation was performed using a homogeniser (PRO Scientific Inc) at 30,000 rpm for 1 min. For 5-HT1A binding assays, the cortex tissues were homogenised in 30 volumes/weight ice-cold 50 mM Tris–HCl buffer (pH 7.4), and the homogenate was centrifuged at 40,000× g for 15 min at 0 °C to 4 °C. The resulting pellets were resuspended in 30 volumes/weight of the same buffer, and incubated at 37 °C for 20 min. The centrifugation step was repeated twice under the same conditions as described above, and the final pellets were resuspended in 30 volumes/weight 50 mM Tris–HCl buffer (pH 7.4), and stored at –80 […]
For the [3H]-8-OH-DPAT binding assay (the 5-HT1A receptor binding assay), the membranes were thawed and resuspended in 50 mM Tris–HCl (pH 7.4) with 1 mM MnCl2, to a final protein concentration of 0.5 mg/mL. The incubation was carried out at 25 °C for 1 h in a final volume of 1 mL membrane suspension in the presence of the sample assayed and with 0.2 nM [3H]-8-OH-DPAT (170.2 Ci/mmol). Serotonin was used as the positive control. Non-specific binding was determined in parallel incubations in the presence of serotonin (10 μM).
4.2.11 Tail suspension test
The tail suspension test was carried out according to the methodology proposed by Steru and co-workers.22 The mice were individually suspended by the tail from a metal hook (distance

Compound | immobility time, acute treatment
CN(C)CCCN1c2ccccc2CCc2ccccc21 [imipramine, reference compound] | significantly reduced

Target: T1, hMAO-A (Homo sapiens, UniProt P21397)
T1 construct: purchased Sigma Aldrich; host or cells: baculovirus-infected insect cells (BTI-TN-5B1-4)
T1 sequence (P21397 1-527): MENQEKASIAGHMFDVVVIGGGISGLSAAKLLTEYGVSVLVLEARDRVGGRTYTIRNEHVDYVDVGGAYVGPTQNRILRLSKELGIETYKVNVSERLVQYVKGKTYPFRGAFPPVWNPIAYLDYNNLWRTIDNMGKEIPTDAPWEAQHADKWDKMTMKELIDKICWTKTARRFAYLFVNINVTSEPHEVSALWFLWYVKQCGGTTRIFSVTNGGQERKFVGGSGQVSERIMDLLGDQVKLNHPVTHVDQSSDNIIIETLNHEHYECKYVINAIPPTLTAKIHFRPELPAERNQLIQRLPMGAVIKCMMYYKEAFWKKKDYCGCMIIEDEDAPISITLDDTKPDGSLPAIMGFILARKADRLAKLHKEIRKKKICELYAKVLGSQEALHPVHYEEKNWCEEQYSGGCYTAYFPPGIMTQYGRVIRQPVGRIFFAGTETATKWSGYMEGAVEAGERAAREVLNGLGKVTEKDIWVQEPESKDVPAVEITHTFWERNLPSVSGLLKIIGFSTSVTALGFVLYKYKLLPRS
Experiment: hMAO-A inhibition, HRP–Amplex Red coupled fluorimetric assay
Format: biochemical
Details: supplement csv; RA at 100 micromolar

Compound | IC50(MAO-A) class
C#CCN1CCCC(/C=C/c2ccc(F)cc2)C1 (racemic) [Compound 19, (±)-(E)-3-(4-Fluorostyryl)-1-(prop-2-yn-1-yl)piperidine] | na (na-not_active(RA_at_100micromolar>50%))
C#CCN1CCCC(/C=C/c2cc(F)c(F)cc2F)C1 (racemic) [Compound 20, (±)-(E)-1-(Prop-2-yn-1-yl)-3-(2,4,5-trifluorostyryl)piperidine] | na (na-not_active(RA_at_100micromolar>50%))
C#CCN1CCCC(CCc2ccc(F)cc2)C1 (racemic) [Compound 23, (±)-3-(4-Fluorophenethyl)-1-(prop-2-yn-1-yl)piperidine] | na (na-not_active(RA_at_100micromolar>50%))
C#CCN1CCCC(CCc2cc(F)c(F)cc2F)C1 (racemic) [Compound 24, (±)-3-(2,4,5-Trifluorophenethyl)-1-(prop-2-yn-1-yl)piperidine] | na (na-not_active(RA_at_100micromolar>50%))
C#CCN1CCC(CCc2ccc(F)cc2)CC1 [Compound 25, 4-(4-Fluorophenethyl)-1-(prop-2-yn-1-yl)piperidine] | na (na-not_active(RA_at_100micromolar>50%))
C#CCN1CCC(CCc2cc(F)c(F)cc2F)CC1 [Compound 26, 1-(Prop-2-yn-1-yl)-4-(2,4,5-trifluorophenethyl)piperidine] | na (na-not_active(RA_at_100micromolar>50%))
C#CCN1CCC(/C=C\c2ccc(C)cc2)CC1 [Compound 75, (Z)-4-(4-Methylstyryl)-1-(prop-2-yn-1-yl)piperidine] | na (na-not_active(RA_at_100micromolar>50%))
C#CCN1CCC(/C=C/c2ccc(C)cc2)CC1 [Compound 76, (E)-4-(4-Methylstyryl)-1-(prop-2-yn-1-yl)piperidine] | na (na-not_active(RA_at_100micromolar>50%))
C#CCN1CCC(/C=C/c2ccc(Br)cc2)CC1 [Compound 81, (E)-4-(4-Bromostyryl)-1-(prop-2-yn-1-yl)piperidine] | na (na-not_active(RA_at_100micromolar>50%))
C#CCN1CCC(/C=C/c2ccc(OC)cc2)CC1 [Compound 82, (E)-4-(4-Methoxystyryl)-1-(prop-2-yn-1-yl)piperidine] | na (na-not_active(RA_at_100micromolar>50%))
C#CCN1CCC(/C=C\c2ccc(C(F)(F)F)cc2)CC1 [Compound 83, (Z)-1-(Prop-2-yn-1-yl)-4-(4-(trifluoromethyl)styryl)piperidine] | na (na-not_active(RA_at_100micromolar>50%))
C#CCN1CCC(/C=C\c2ccc(S(C)(=O)=O)cc2)CC1 [Compound 89, (Z)-4-(4-(Methylsulfonyl)styryl)-1-(prop-2-yn-1-yl)piperidine] | na (na-not_active(RA_at_100micromolar>50%))
C#CCN1CCC(/C=C/c2ccc(S(C)(=O)=O)cc2)CC1 [Compound 90, (E)-4-(4-(Methylsulfonyl)styryl)-1-(prop-2-yn-1-yl)piperidine] | na (na-not_active(RA_at_100micromolar>50%))
C#CCN1CCC(CCc2ccc(C)cc2)CC1 [Compound 96, 4-(4-Methylphenethyl)-1-(prop-2-yn-1-yl)piperidine] | na (na-not_active(RA_at_100micromolar>50%))
C#CCN1CCC(CCc2ccc(Cl)cc2)CC1 [Compound 98, 4-(4-Chlorophenethyl)-1-(prop-2-yn-1-yl)piperidine] | na (na-not_active(RA_at_100micromolar>50%))
C#CCN1CCC(CCc2ccc(OC)cc2)CC1 [Compound 99, 4-(4-Methoxyphenethyl)-1-(prop-2-yn-1-yl)piperidine] | na (na-not_active(RA_at_100micromolar>50%))
C#CCN1CCC(CCc2cccc(C(F)(F)F)c2)CC1 [Compound 101, 1-(Prop-2-yn-1-yl)-4-(3-(trifluoromethyl)phenethyl)piperidine] | na (na-not_active(RA_at_100micromolar>50%))
C#CCN1CCC(/C=C\c2ccc(C(N)=O)cc2)CC1 [Compound 104, (Z)-4-(2-(1-(Prop-2-yn-1-yl)piperidin-4-yl)vinyl)benzamide] | na (na-not_active(RA_at_100micromolar>50%))
C#CCN1CCC(/C=C/c2ccc(C(N)=O)cc2)CC1 [Compound 105, (E)-4-(2-(1-(Prop-2-yn-1-yl)piperidin-4-yl)vinyl)benzamide] | na (na-not_active(RA_at_100micromolar>50%))
C#CCN1CCC(CCc2ccc(C(N)=O)cc2)CC1 [Compound 106, 4-(2-(1-(Prop-2-yn-1-yl)piperidin-4-yl)ethyl)benzamide] | na (na-not_active(RA_at_100micromolar>50%))
C#CCN1CCC(CCc2ccc(O)cc2)CC1 [Compound 107, 4-(2-(1-(Prop-2-yn-1-yl)piperidin-4-yl)ethyl)phenol] | na (na-not_active(RA_at_100micromolar>50%))

Test system: SH-SY5Y cells
Experiment: MTS cytotoxicity assay
Details: 24 h, 5 μM and 10 μM

Compound | cytotoxic effects
C#CCN1CCC(/C=C/c2ccc(F)cc2)CC1 [Compound 1, (E)-4-(4-Fluorostyryl)-1-(prop-2-yn-1-yl)piperidine] | no significant cytotoxic effects
C#CCN1CCC(CCc2ccc(C(C)C)cc2)CC1 [Compound 97, 4-(4-Isopropylphenethyl)-1-(prop-2-yn-1-yl)piperidine] | no significant cytotoxic effects
C#CCN1CCC(CCc2ccc(C#N)cc2)CC1 [Compound 102, 4-(2-(1-(Prop-2-yn-1-yl)piperidin-4-yl)ethyl)benzonitrile] | no significant cytotoxic effects

Target: T2, 5-HT1A receptor (Rattus norvegicus, UniProt P19327)
T2 construct: from tissue; host or cells: rat (male Wistar) brain cortex membranes
T2 sequence (P19327 1-422): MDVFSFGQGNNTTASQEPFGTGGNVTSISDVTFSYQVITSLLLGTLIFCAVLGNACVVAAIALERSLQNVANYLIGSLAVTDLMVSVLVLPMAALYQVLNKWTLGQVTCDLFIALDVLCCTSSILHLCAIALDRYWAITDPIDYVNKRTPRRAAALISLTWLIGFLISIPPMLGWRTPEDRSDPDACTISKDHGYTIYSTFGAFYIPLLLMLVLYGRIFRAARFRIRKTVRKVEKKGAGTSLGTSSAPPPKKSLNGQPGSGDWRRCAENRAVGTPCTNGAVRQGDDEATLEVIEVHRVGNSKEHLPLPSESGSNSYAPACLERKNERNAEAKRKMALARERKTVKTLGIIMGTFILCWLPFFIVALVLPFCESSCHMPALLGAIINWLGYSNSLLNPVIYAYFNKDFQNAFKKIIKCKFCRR
Experiment: [3H]-8-OH-DPAT radioligand binding assay, rat cortex membranes
Details: [3H]-8-OH-DPAT binding, means ±SEM

Compound | Ki
C#CCN1CCC(CCc2ccc(C#N)cc2)CC1 [Compound 102, 4-(2-(1-(Prop-2-yn-1-yl)piperidin-4-yl)ethyl)benzonitrile] | 8.6 ± 1.7 µM

Same assay, conditions: read-out: Inhibition at 300 µM

Compound | inhibition at 300 µM
C#CCN1CCC(CCc2ccc(C#N)cc2)CC1 [Compound 102, 4-(2-(1-(Prop-2-yn-1-yl)piperidin-4-yl)ethyl)benzonitrile] | 78%

Test system: not listed separately
Experiment: Thermodynamic solubility in PBS
Format: physicochemical
Details: PBS (pH 7.4), 37 °C, 24 h, hydrochloride salts

Compound | thermodynamic solubility
C#CCN1CCC(CCc2ccc(C(C)C)cc2)CC1 [Compound 97, 4-(4-Isopropylphenethyl)-1-(prop-2-yn-1-yl)piperidine] | ≥ 14.5 g/250 mL
